Source: PubChem BioAssay AID1963856 (Molecular Pharmacology Branch, DTP, NCI, 2024)
Calls of active or inactive are those of the source. How the source made its calls: active means viability on the fitted dose curve at most 10% of control; inactive means the rest.

Test system: LG0567-F671-PDC KRAS tumor spheroid viability
Test: Anticancer human tumor LG0567-F671-PDC patient-derived lung adenocarcinoma cell line growth inhibition [KRAS2]
Conditions: spheroids with HUVEC and MSC; for IC50: curve of first compound; for viability, T/C: stronger effect = lower value
Procedure, shortened: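 KRAS-mutant tumor cells were grown as spheroids with HUVEC endothelial cells and human MSCs as stroma. Targeted agents were tested alone and with KRAS pathway inhibitors. Doses started at or near clinical Cmax, or 10 microM, descending half-log.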

[1] = second compound 0.1 µM, first compound 0.000316 µM
[2] = second compound 0.1 µM, first compound 0.001 µM
[3] = second compound 0.1 µM, first compound 0.00316 µM
[4] = second compound 0.1 µM, first compound 0.01 µM
[5] = second compound 0.1 µM, first compound 0.0316 µM
[6] = second compound 0.316 µM, first compound 0.000316 µM
[7] = second compound 0.316 µM, first compound 0.001 µM
[8] = second compound 0.316 µM, first compound 0.00316 µM
[9] = second compound 0.316 µM, first compound 0.01 µM
[10] = second compound 0.316 µM, first compound 0.0316 µM
[11] = second compound 1 µM, first compound 0.000316 µM
[12] = second compound 1 µM, first compound 0.001 µM
[13] = second compound 1 µM, first compound 0.00316 µM
[14] = second compound 1 µM, first compound 0.01 µM
[15] = second compound 1 µM, first compound 0.0316 µM
[16] = second compound 3.16 µM, first compound 0.000316 µM
[17] = second compound 3.16 µM, first compound 0.001 µM
[18] = second compound 3.16 µM, first compound 0.00316 µM
[19] = second compound 3.16 µM, first compound 0.01 µM
[20] = second compound 3.16 µM, first compound 0.0316 µM
[21] = second compound 10 µM, first compound 0.000316 µM
[22] = second compound 10 µM, first compound 0.001 µM
[23] = second compound 10 µM, first compound 0.00316 µM
[24] = second compound 10 µM, first compound 0.01 µM
[25] = second compound 10 µM, first compound 0.0316 µM
[26] = second compound 0.1 µM, first compound 0.1 µM
[27] = second compound 0.316 µM, first compound 0.1 µM
[28] = second compound 3.16 µM, first compound 0.1 µM
[29] = second compound 10 µM, first compound 0.1 µM
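Wherever IC50 is given: drug exposure lasted seven days after spheroids formed for three days.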
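Wherever viability, T/C is given: drug exposure lasted seven days after spheroids formed for three days; 100% = DMSO vehicle control viability.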

SMILES | IC50 (second compound 0.1 µM) [nM] | IC50 (second compound 0.316 µM) [nM] | IC50 (second compound 1 µM) [nM] | IC50 (second compound 3.16 µM) [nM] | IC50 (second compound 10 µM) [nM] | viability, T/C [1] [%] | viability, T/C [2] [%] | viability, T/C [3] [%] | viability, T/C [4] [%] | viability, T/C [5] [%] | viability, T/C [6] [%] | viability, T/C [7] [%] | viability, T/C [8] [%] | viability, T/C [9] [%] | viability, T/C [10] [%] | viability, T/C [11] [%] | viability, T/C [12] [%] | viability, T/C [19] [%] | viability, T/C [20] [%] | viability, T/C [25] [%] | other results
CC(=O)Nc1cccc(-n2c(=O)n(C3CC3)c(=O)c3c(Nc4ccc(I)cc4F)n(C)c(=O)c(C)c32)c1 + CC1OCC2(CCN(c3cnc(Sc4ccnc(N)c4Cl)c(N)n3)CC2)C1N | < 0.1 | < 0.1 | < 0.1 | < 0.1 | < 0.1 | 44.6 | 49.4 | 44.7 | 22.7 | 7.91 | 31.2 | 25.6 | 21.9 | 14.9 | 7.83 | 21.8 | 17.6 | 1.41 | 3.95 | 2.49 | viability, T/C (second compound 0.1 µM, first compound 0.0001 µM): 53.7%; viability, T/C (second compound 0.316 µM, first compound 0.0001 µM): 37.1%; viability, T/C (second compound 1 µM, first compound 0.0001 µM): 22.4%; viability, T/C [13]: 8.6%; viability, T/C [14]: 6.42%; viability, T/C [15]: 3.01%; viability, T/C (second compound 3.16 µM, first compound 0.0001 µM): 14.7%; viability, T/C [16]: 8.03%; viability, T/C [17]: 2.89%; viability, T/C [18]: 1.92%; viability, T/C (second compound 10 µM, first compound 0.0001 µM): 5.94%; viability, T/C [21]: 2.29%; viability, T/C [22]: 2.96%; viability, T/C [23]: 1.63%; viability, T/C [24]: 1.31%
CC(=O)OC12COC1CC(O)C1(C)C(=O)C(O)C3=C(C)C(OC(=O)C(O)C(NC(=O)OC(C)(C)C)c4ccccc4)CC(O)(C(OC(=O)c4ccccc4)C21)C3(C)C (stereo not drawn) + CC1OCC2(CCN(c3cnc(Sc4ccnc(N)c4Cl)c(N)n3)CC2)C1N | < 10 | < 10 | – | < 10 | < 10 | – | – | – | 41.6 | 39.4 | – | – | – | 26.7 | 26.7 | – | – | 14.7 | 12.3 | 9.36 | viability, T/C [26]: 38.7%; viability, T/C (second compound 0.1 µM, first compound 0.316 µM): 40.4%; viability, T/C (second compound 0.1 µM, first compound 1 µM): 48%; viability, T/C (second compound 0.1 µM, first compound 3.16 µM): 38.6%; viability, T/C [27]: 24.9%; viability, T/C (second compound 0.316 µM, first compound 0.316 µM): 22.1%; viability, T/C (second compound 0.316 µM, first compound 1 µM): 28.1%; viability, T/C (second compound 0.316 µM, first compound 3.16 µM): 20.6%; viability, T/C [28]: 10.3%; viability, T/C (second compound 3.16 µM, first compound 0.316 µM): 10.6%; viability, T/C (second compound 3.16 µM, first compound 1 µM): 11.9%; viability, T/C (second compound 3.16 µM, first compound 3.16 µM): 10.3%; viability, T/C [24]: 14.9%; viability, T/C [29]: 11.2%; viability, T/C (second compound 10 µM, first compound 0.316 µM): 9.93%; viability, T/C (second compound 10 µM, first compound 1 µM): 12.9%; viability, T/C (second compound 10 µM, first compound 3.16 µM): 9.85%
CN(C)C/C=C/C(=O)Nc1cc2c(Nc3ccc(F)c(Cl)c3)ncnc2cc1O[C@H]1CCOC1 + CC1OCC2(CCN(c3cnc(Sc4ccnc(N)c4Cl)c(N)n3)CC2)C1N | 4.99 | < 0.316 | > 100 | < 0.316 | < 0.316 | 55.9 | 51.9 | 50.8 | 52.2 | 43.3 | 44.1 | 40.5 | 43.1 | 30.6 | 29.9 | 106 | 84.5 | 21.2 | 18.4 | 13.4 | viability, T/C [26]: 49.4%; viability, T/C [27]: 32.7%; viability, T/C [13]: 96.2%; viability, T/C [14]: 78.9%; viability, T/C [15]: 59%; viability, T/C (second compound 1 µM, first compound 0.1 µM): 69.3%; viability, T/C [16]: 19.9%; viability, T/C [17]: 15.2%; viability, T/C [18]: 16.2%; viability, T/C [28]: 21.6%; outcome [21]: inactive; outcome [22]: inactive; viability, T/C [23]: 15.9%; outcome [24]: inactive; viability, T/C [29]: 12.9%
